Data set [1] has as its target T1, EG I' from Fusarium oxysporum (Figure 4) (Fusarium oxysporum, UniProt P46237).
T1 sequence (P46237 19-429): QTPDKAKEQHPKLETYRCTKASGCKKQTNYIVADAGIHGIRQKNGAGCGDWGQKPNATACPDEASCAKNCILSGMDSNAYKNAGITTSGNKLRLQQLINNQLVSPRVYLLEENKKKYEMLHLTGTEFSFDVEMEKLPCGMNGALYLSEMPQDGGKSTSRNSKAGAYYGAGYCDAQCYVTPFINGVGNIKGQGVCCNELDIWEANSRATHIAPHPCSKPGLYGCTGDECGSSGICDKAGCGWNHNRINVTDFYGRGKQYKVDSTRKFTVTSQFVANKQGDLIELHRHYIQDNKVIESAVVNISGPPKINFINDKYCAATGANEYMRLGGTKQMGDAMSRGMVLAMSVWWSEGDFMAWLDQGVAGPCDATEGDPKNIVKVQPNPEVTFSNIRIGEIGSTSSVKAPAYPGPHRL
Description: Cellulase activity on cellotriose (coupled glucose oxidase/peroxidase/ABTS assay). The following applies: pH 8,5 and 40°C; calculated from a Lineweaver-Burk plot.
Description: (§1) The cellulase activity on cellotriose, in terms of kcat·s^-1, was determined by a coupled assay: Cellotriose → Glucose + Cellobiose (cat.: cellulase) Glucose + O2 + H2O → Gluconate + H2O2 (cat.: Glucoseoxidase) H2O2 + ABTS^R → ABTS^Ox (cat.: Peroxidase) which is followed spectrophotometrically at 418 nm (maximum absorbance of ABTS^Ox at 418 nm).
(§2) The GOD-Perid Test Kit (available from Boehringer Mannheim, art. 124 036) was used. The buffer-enzyme solution in the test kit was dissolved in 500 ml milli Q water. pH of the solution was adjusted to 8.5 (NaOH).
(§3) 80 mg of ABTS^R (available from Boehringer Mannheim, art. 756 407) was dissolved in 10 ml GOD-Perid corresponding to a total concentration of ABTS^R of 10 mg/ml.
(§4) A substrate stock solution of 5 mmole (2.52 mg/ml) of cellotriose (available from Merck art. 24741) in water was prepared. Diluted solutions in water corresponding to 1000 µmole, 500 µmole, 376 µmole, 250 µmole, 100 µmole and 60 µmole were prepared.
(§5) The reaction mixture was prepared by mixing 1 part of substrate solution with 1 part of GOD-Perid.
(§6) A solution of the cellulase enzyme to be determined in a concentration of 1.0 - 3.0 µmole was prepared. […]
(§7) The cellulase activity on cellotriose, in terms of kcat·s^-1, was calculated from a Lineweaver-Burk plot (a plot of 1/V versus 1/[S]): the slope and the intersection were determined by linear regression analysis. […]

Substrate in data set [2]: OC[C@H]1O[C@@H](O[C@H]2[C@H](O)[C@@H](O)[C@H](O[C@H]3[C@H](O)[C@@H](O)C(O)O[C@@H]3CO)O[C@@H]2CO)[C@H](O)[C@@H](O)[C@@H]1O
Description: purified protein, by the assay type. The following applies: other: substrate cellotriose, pH 8,5 and 40°C, calculated from a Lineweaver-Burk plot, pH 8.5.
Description: as §1, §2, §3, §4, §5, §6, §7

For `OC[C@H]1O[C@@H](O[C@H]2[C@H](O)[C@@H](O)[C@H](O[C@H]3[C@H](O)[C@@H](O)C(O)O[C@@H]3CO)O[C@@H]2CO)[C@H](O)[C@@H](O)[C@@H]1O` (some centres unmarked) [cellotriose], the “catalytic activity on cellotriose (Kcat)” value in data set [1] is 5,5 pr. sec.

B1: EG I' from Fusarium oxysporum (Figure 4) (Fusarium oxysporum) (protein)
chain: T1 sequence (P46237 19-429)
As for B1, in data set [2], the Michaelis-Menten constant (Km) was 500 µM.

The record behind these values is patent publication EP1632557B1, “Novel alkaline cellulases” (Novozymes A/S, priority 1994, dated 1995).
